#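 Dose response: 5 concentrations. Exposure: 48 h. Format: 96-well plates. Endpoint: linear interpolation; highest concentration if not reached. The concentration for 50% growth inhibition is given as GI50.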 Activity calls are given as the source filed them. Cut-off read from the data, not from the text of the source: active = GI50 up to about 1.1 µM and inactive = higher.
# How the values were obtained:
# Assay in all cases: inhibition of tumour cell growth, NCI panel, 48 h
# [1] = test system: CAKI-1
# [2] = test system: HCC 2998
# [3] = test system: HCT-116
# [4] = test system: HCT-15
# [5] = test system: IGROV-1
# [6] = test system: K562
# [7] = test system: LOX IMVI
# [8] = test system: Malme-3M
# [9] = test system: NCI-H23
# [10] = test system: NCI-H460
# [11] = test system: OVCAR-3
# [12] = test system: OVCAR-5
# [13] = test system: SF-268
# [14] = test system: SF-295
# [15] = test system: SF-539
# [16] = test system: SN12C
# [17] = test system: SNB-19
# [18] = test system: SW-620
# [19] = test system: U-251
# [20] = test system: UO-31
Compound,GI50 [1],GI50 [2],GI50 [3],GI50 [4] [µM],GI50 [5],GI50 [6],GI50 [7],GI50 [8],GI50 [9],GI50 [10],GI50 [11],GI50 [12],GI50 [13],GI50 [14],GI50 [15],GI50 [16],GI50 [17],GI50 [18],GI50 [19],GI50 [20]
c1ccc(C(c2ccccc2)c2cccnc2)cc1,> 100 µM (inactive),> 100 µM (inactive),> 100 µM (inactive),> 100,> 100 µM (inactive),38.3 µM (inactive),> 100 µM (inactive),> 100 µM (inactive),65.8 µM (inactive),> 100 µM (inactive),> 100 µM (inactive),> 100 µM (inactive),> 100 µM (inactive),> 100 µM (inactive),> 100 µM (inactive),> 100 µM (inactive),> 100 µM (inactive),> 100 µM (inactive),> 100 µM (inactive),97.9 µM (inactive)
COc1ccc(O)c(C#N)c1C#N.COc1ccc(OC)c(C#N)c1C#N,> 100 µM (inactive),> 100 µM (inactive),> 100 µM (inactive),> 100,> 100 µM (inactive),> 100 µM (inactive),> 100 µM (inactive),> 100 µM (inactive),> 100 µM (inactive),> 100 µM (inactive),> 100 µM (inactive),> 100 µM (inactive),> 100 µM (inactive),> 100 µM (inactive),> 100 µM (inactive),> 100 µM (inactive),> 100 µM (inactive),> 100 µM (inactive),> 100 µM (inactive),> 100 µM (inactive)
CO/N=C1\CC(NC(=O)C(F)(F)F)c2ccsc21 (configuration not stated),> 100 µM (inactive),> 100 µM (inactive),> 100 µM (inactive),> 100,> 100 µM (inactive),> 100 µM (inactive),> 100 µM (inactive),> 100 µM (inactive),> 100 µM (inactive),> 100 µM (inactive),> 100 µM (inactive),> 100 µM (inactive),> 100 µM (inactive),> 100 µM (inactive),> 100 µM (inactive),> 100 µM (inactive),,> 100 µM (inactive),> 100 µM (inactive),> 100 µM (inactive)
CNC(=O)OCc1c(CO)nc(SC)n1C,> 100 µM (inactive),> 100 µM (inactive),> 100 µM (inactive),> 100,> 100 µM (inactive),> 100 µM (inactive),> 100 µM (inactive),> 100 µM (inactive),> 100 µM (inactive),> 100 µM (inactive),> 100 µM (inactive),> 100 µM (inactive),> 100 µM (inactive),> 100 µM (inactive),> 100 µM (inactive),> 100 µM (inactive),> 100 µM (inactive),> 100 µM (inactive),> 100 µM (inactive),> 100 µM (inactive)
O=C(O)c1ccccc1/N=C/c1ccc(N(CCCl)CCCl)cc1,9.75 µM (inactive),> 100 µM (inactive),> 100 µM (inactive),> 100,> 100 µM (inactive),> 100 µM (inactive),> 100 µM (inactive),> 100 µM (inactive),47.6 µM (inactive),31.5 µM (inactive),> 100 µM (inactive),> 100 µM (inactive),> 72.4 µM (inactive),> 100 µM (inactive),> 66.5 µM (inactive),> 85.5 µM (inactive),> 100 µM (inactive),> 100 µM (inactive),78 µM (inactive),> 65.2 µM (inactive)
O=[N+]([O-])c1ccc(-c2ccc([C@H]3CC(c4cc(F)c(Cl)cc4Cl)=NN3)o2)cc1,25.9 µM (inactive),14.3 µM (inactive),29.6 µM (inactive),1.52,38.7 µM (inactive),22.9 µM (inactive),3.63 µM (inactive),19.2 µM (inactive),2.3 µM (inactive),0.435 µM (active),45.2 µM (inactive),> 100 µM (inactive),19.1 µM (inactive),44.2 µM (inactive),5.38 µM (inactive),24.3 µM (inactive),> 100 µM (inactive),23.6 µM (inactive),,69.3 µM (inactive)
COc1cc2nc(-c3cccs3)nc(N3CCN(c4ccccc4)CC3)c2cc1OC,> 100 µM (inactive),,> 100 µM (inactive),> 100,> 100 µM (inactive),> 100 µM (inactive),> 100 µM (inactive),> 100 µM (inactive),> 100 µM (inactive),> 100 µM (inactive),> 100 µM (inactive),> 100 µM (inactive),> 100 µM (inactive),> 100 µM (inactive),> 100 µM (inactive),> 100 µM (inactive),68.1 µM (inactive),> 100 µM (inactive),> 100 µM (inactive),> 100 µM (inactive)
COc1ccc(C(C#N)NC23CC4CC(CC(C4)C2)C3)cc1OC (configuration not stated),> 100 µM (inactive),> 100 µM (inactive),> 100 µM (inactive),> 100,> 100 µM (inactive),> 100 µM (inactive),> 100 µM (inactive),> 100 µM (inactive),> 100 µM (inactive),> 100 µM (inactive),> 100 µM (inactive),> 100 µM (inactive),> 100 µM (inactive),> 100 µM (inactive),> 100 µM (inactive),> 100 µM (inactive),> 100 µM (inactive),> 100 µM (inactive),> 100 µM (inactive),84.3 µM (inactive)
Brc1ccc2[nH]c3c(C4=NCCC4)nccc3c2c1,19.6 µM (inactive),12.2 µM (inactive),9.86 µM (inactive),17,18.7 µM (inactive),11.3 µM (inactive),18 µM (inactive),1.91 µM (inactive),24.8 µM (inactive),9.95 µM (inactive),61 µM (inactive),6.11 µM (inactive),16.1 µM (inactive),10.6 µM (inactive),9.53 µM (inactive),19.1 µM (inactive),21.7 µM (inactive),21.3 µM (inactive),12.5 µM (inactive),14.8 µM (inactive)
CC[C@H](C)[C@H]1NC(=O)C(C(C)=O)=C1O,> 100 µM (inactive),54 µM (inactive),51.9 µM (inactive),79.8,> 100 µM (inactive),> 100 µM (inactive),62.4 µM (inactive),> 100 µM (inactive),> 100 µM (inactive),80 µM (inactive),72.9 µM (inactive),> 100 µM (inactive),55.2 µM (inactive),> 100 µM (inactive),> 100 µM (inactive),83.6 µM (inactive),78.3 µM (inactive),21.4 µM (inactive),52.7 µM (inactive),> 100 µM (inactive)
O=[N+]([O-])c1ccc(Cc2nc3cc4ccccc4cc3[nH]2)cc1C(F)(F)F,11.6 µM (inactive),16.6 µM (inactive),13.9 µM (inactive),12,,6.56 µM (inactive),18.5 µM (inactive),9.79 µM (inactive),12.5 µM (inactive),7.82 µM (inactive),10.7 µM (inactive),14.4 µM (inactive),13.6 µM (inactive),11.9 µM (inactive),16.2 µM (inactive),18.7 µM (inactive),15.6 µM (inactive),19.8 µM (inactive),14.8 µM (inactive),15.8 µM (inactive)
CCOC(=O)Cn1c(=O)ccn(COCCO)c1=O,> 100 µM (inactive),> 100 µM (inactive),,> 100,> 100 µM (inactive),> 100 µM (inactive),> 100 µM (inactive),> 100 µM (inactive),> 100 µM (inactive),> 100 µM (inactive),> 100 µM (inactive),> 100 µM (inactive),> 100 µM (inactive),,> 100 µM (inactive),> 100 µM (inactive),> 100 µM (inactive),> 100 µM (inactive),> 100 µM (inactive),> 100 µM (inactive)
CCO/C=N\C1=C(C#N)SC2=N/C(=C\c3ccc(OC)cc3)C(=O)N21,> 100 µM (inactive),39.5 µM (inactive),> 100 µM (inactive),85.9,96.8 µM (inactive),25.9 µM (inactive),> 100 µM (inactive),> 100 µM (inactive),> 100 µM (inactive),,,> 100 µM (inactive),45.4 µM (inactive),59.3 µM (inactive),> 100 µM (inactive),> 100 µM (inactive),83.6 µM (inactive),> 100 µM (inactive),75.3 µM (inactive),> 100 µM (inactive)
